Experimental data published in paper PMC4303209, “A novel phosphatidylinositol 3-kinase (PI3K) inhibitor directs a potent FOXO-dependent, p53-independent cell cycle arrest phenotype characterized by the differential induction of a subset of FOXO-regulated genes” (Breast Cancer Research : BCR, 2014).

Test system: MCF-7 breast cancer cells
Experiment: Microarray gene expression analysis (Agilent whole human genome 4 x 44K; compound vs DMSO, LIMMA log2 fold change)
Assay type: cell-based
[1] = MCF-7, 100nM, six hours, 1.5-fold expression change threshold

## Cn1ncc2c(N3CCOCC3)nc(-c3cccc(O)c3)nc21 [ETP-45658]
Gene 114799, cell cycle genes
  ESCO1 log2FC: 0.560
Gene 115426, cell cycle genes
  UHRF2 log2FC: 0.500
Gene 116138, cell cycle genes
  KLHDC3 log2FC: -0.048
Gene 116840, cell cycle genes
  CNTROB log2FC: -0.102
Gene 121441, cell cycle genes
  NEDD1 log2FC: 0.443
Gene 124790, cell cycle genes
  HEXIM2 log2FC: 0.577
Gene 127829, cell cycle genes
  ARL8A log2FC: 0.446
Gene 127933, cell cycle genes
  UHMK1 log2FC: -0.099
Gene 128239, cell cycle genes
  IQGAP3 log2FC: 0.155
Gene 129401, cell cycle genes
  NUP35 log2FC: -0.169
Gene 129531, cell cycle genes
  MITD1 log2FC: 0.836
Gene 131870, cell cycle genes
  NUDT16 log2FC: -0.327
Gene 132625, cell cycle genes
  ZFP42 log2FC: 0.031
Gene 133746, cell cycle genes
  JMY log2FC: 1.016
Gene 135458, cell cycle genes
  HUS1B log2FC: -0.791
Gene 140609, cell cycle genes
  NEK7 log2FC: 0.053
Gene 140690, cell cycle genes
  CTCFL log2FC: -0.021
Gene 143471, cell cycle genes
  PSMA8 log2FC: 0.068
Gene 143686, cell cycle genes
  SESN3 log2FC: 0.057
Gene 143689, cell cycle genes
  PIWIL4 log2FC: 0.405
Gene 144455, cell cycle genes
  E2F7 log2FC: -0.474
Gene 144715, cell cycle genes
  RAD9B log2FC: 0.061
Gene 147040, cell cycle genes
  KCTD11 log2FC: 0.142
Gene 149628, cell cycle genes
  PYHIN1 log2FC: -0.052
Gene 151242, cell cycle genes
  PPP1R1C log2FC: 0.132
Gene 151246, cell cycle genes
  SGOL2 log2FC: 0.811
Gene 151648, cell cycle genes
  SGOL1 log2FC: 0.489
Gene 152015, cell cycle genes
  ROPN1B log2FC: 0.058
Gene 153090, cell cycle genes
  DAB2IP log2FC: -0.220
Gene 157313, cell cycle genes
  CDCA2 log2FC: 0.547
Gene 157570, cell cycle genes
  ESCO2 log2FC: 0.730
Gene 163786, cell cycle genes
  SASS6 log2FC: 0.483
Gene 164684, cell cycle genes
  WBP2NL log2FC: -0.063
Gene 168451, cell cycle genes
  THAP5 log2FC: 0.256
Gene 201163, cell cycle genes
  FLCN log2FC: 0.968
Gene 201254, cell cycle genes
  STRA13 log2FC: -0.358
Gene 203068, cell cycle genes
  TUBB log2FC: -0.709
Gene 221035, cell cycle genes
  REEP3 log2FC: -0.240
Gene 221477, cell cycle genes
  C6orf89 log2FC: -0.508
Gene 245711, cell cycle genes
  SPDYA log2FC: -0.071
Gene 246184, cell cycle genes
  CDC26 log2FC: -0.688
Gene 259266, cell cycle genes
  ASPM log2FC: 1.100
Gene 283375, cell cycle genes
  SLC39A5 log2FC: -0.022
Gene 283431, cell cycle genes
  GAS2L3 log2FC: 0.617
Gene 286053, cell cycle genes
  NSMCE2 log2FC: 1.151
Gene 286826, cell cycle genes
  LIN9 log2FC: 1.274
Gene 339967, cell cycle genes
  TMPRSS11A log2FC: 0.046
Gene 348995, cell cycle genes
  NUP43 log2FC: 0.749
Gene 378708, cell cycle genes
  APITD1 log2FC: 0.144
Gene 387893, cell cycle genes
  SETD8 log2FC: 0.093
Gene 415116, cell cycle genes
  PIM3 log2FC: 0.693
Gene 440822, cell cycle genes
  PIWIL3 log2FC: -0.066
MCF-7
  expression of FOXO-dependent apoptosis genes including TNFSF10, BCL211 and FASLG (array): did not significantly change
[1]
  number of induced (upregulated) genes: 1,549
  number of repressed (downregulated) genes: 989
MCF-7, FOXO target genes
  CCND1, SPRY2 and MMP9 expression (array): significantly downregulated
  expression of CCNG2, KLHL24, DDIT3, CITED2 and RICTOR (array): significantly upregulated
MCF-7, upregulated genes
  bound FOXO sites (transcription factor enrichment analysis): highly significant increase
Cell cycle genes
  MAD1L1 log2FC: -0.032
Gene ACSL5 (51703), apoptosis genes
  ACSL5 log2FC: 0.011
Gene ACTR1A (Gene 10121), cell cycle genes
  log2FC: -0.180
Gene ADAMTS20 (80070), apoptosis genes
  ADAMTS20 log2FC: 0.014
Gene ADIPOQ (9370), apoptosis genes
  ADIPOQ log2FC: 0.013
Gene ADRA1A (148), apoptosis genes
  ADRA1A log2FC: 0.060
Gene AGTR2 (186), apoptosis genes
  AGTR2 log2FC: 0.004
Gene AKAP8 (Gene 10270), cell cycle genes
  log2FC AKAP8: -0.037
Gene ALB (213), apoptosis genes
  ALB log2FC: -0.050
Gene ALOX12 (239), apoptosis genes
  ALOX12 log2FC: 0.083
Gene ALX3 (257), apoptosis genes
  ALX3 log2FC: -0.018
Gene ALX4 (60529), apoptosis genes
  ALX4 log2FC: -0.043
Gene ANAPC13 (Gene 25847), cell cycle genes
  log2FC: -0.342
Gene ANKRD13C (81573), apoptosis genes
  ANKRD13C log2FC: 0.077
Gene APBB1 (322), apoptosis genes
  APBB1 log2FC: 0.078
Gene APOH (350), apoptosis genes
  APOH log2FC: -0.009
Gene AQP1 (358), apoptosis genes
  AQP1 log2FC: -0.015
Gene ARHGAP10 (79658), apoptosis genes
  ARHGAP10 log2FC: -0.010
Gene ARHGEF6 (9459), apoptosis genes
  ARHGEF6 log2FC: -0.041
Gene ARHGEF16 (27237), apoptosis genes
  ARHGEF16 log2FC: 0.078
Gene ARHGEF18 (23370), apoptosis genes
  ARHGEF18 log2FC: -0.051
Gene ATOH1 (474), apoptosis genes
  ATOH1 log2FC: -0.034
Gene ATPIF1 (93974), apoptosis genes
  ATPIF1 log2FC: 0.069
Gene ATR (Gene 545), cell cycle genes
  log2FC: 0.346
Gene BAD (Gene 572), cell cycle genes
  log2FC: 0.276
Gene BCL2L10 (10017), apoptosis genes
  BCL2L10 log2FC: -0.024
Gene BDKRB2 (624), apoptosis genes
  BDKRB2 log2FC: 0.060
Gene BIRC2 (329), apoptosis genes
  BIRC2 log2FC: 0.082
Gene BIRC8 (112401), apoptosis genes
  BIRC8 log2FC: -0.014
Gene BMP2 (650), apoptosis genes
  BMP2 log2FC: -0.038
Gene BMP4 (Gene 652), cell cycle genes
  log2FC: 0.407
Gene BMP5 (653), apoptosis genes
  BMP5 log2FC: 0.022
Gene BOK (666), apoptosis genes
  BOK log2FC: -0.021
Gene BRE (Gene 9577), cell cycle genes
  log2FC: -0.322
Gene BTK (695), apoptosis genes
  BTK log2FC: -0.064
Gene BUB1B (Gene 701), cell cycle genes
  log2FC: 0.344
Gene C1QBP (708), apoptosis genes
  C1QBP log2FC: 0.052
Gene C3orf38 (285237), apoptosis genes
  C3orf38 log2FC: -0.027
Gene CAMK2B (Gene 816), cell cycle genes
  log2FC: -0.123
Gene CAPN3 (825), apoptosis genes
  CAPN3 log2FC: 0.007
Gene CAPN3 (Gene 825), cell cycle genes
  log2FC CAPN3: 0.007
Gene CARD9 (64170), apoptosis genes
  CARD9 log2FC: -0.027
Gene CARD14 (79092), apoptosis genes
  CARD14 log2FC: 0.026
Gene CASP3 (Gene 836), cell cycle genes
  log2FC: 0.546
Gene CASP10 (843), apoptosis genes
  CASP10 log2FC: -0.013
Gene CASP12 (120329), apoptosis genes
  CASP12 log2FC: 0.004
Gene CCK (885), apoptosis genes
  CCK log2FC: -0.026
Gene CCL19 (6363), apoptosis genes
  CCL19 log2FC: -0.021
Gene CCNB2 (Gene 9133), cell cycle genes
  log2FC: 0.253
Gene CCNH (Gene 902), cell cycle genes
  log2FC: 0.426
Gene CCNT2 (Gene 905), cell cycle genes
  log2FC: 0.221
Gene CD38 (952), apoptosis genes
  CD38 log2FC: -0.014
Gene CD40LG (959), apoptosis genes
  CD40LG log2FC: -0.031
Gene CD248 (57124), apoptosis genes
  CD248 log2FC: -0.012
Gene CDC73 (Gene 79577), cell cycle genes
  log2FC: 0.443
Gene CDH1 (999), apoptosis genes
  CDH1 log2FC: 0.047
Gene CDH13 (Gene 1012), cell cycle genes
  log2FC CDH13: -0.017
Gene CDK2AP1 (Gene 8099), cell cycle genes
  log2FC CDK2AP1: -0.041
Gene CDK5 (1020), apoptosis genes
  CDK5 log2FC: -0.089
Gene CDK5RAP1 (Gene 51654), cell cycle genes
  log2FC CDK5RAP1: 0.018
Gene CDKN2B (Gene 1030), cell cycle genes
  log2FC CDKN2B: 0.013
Gene CENPJ (Gene 55835), cell cycle genes
  log2FC: 0.293
Gene CENPK (Gene 64105), cell cycle genes
  log2FC: 0.519
Gene CETN3 (Gene 1070), cell cycle genes
  log2FC: 0.369
Gene CHEK2 (Gene 11200), cell cycle genes
  log2FC: 0.312
Gene CHIA (27159), apoptosis genes
  CHIA log2FC: -0.023
Gene CIDEA (1149), apoptosis genes
  CIDEA log2FC: -0.026
Gene CLC (1178), apoptosis genes
  CLC log2FC: -0.009
Gene CLEC5A (23601), apoptosis genes
  CLEC5A log2FC: -0.012
Gene CLSPN (63967), apoptosis genes
  CLSPN log2FC: 0.066
Gene CNTFR (1271), apoptosis genes
  CNTFR log2FC: -0.014
Gene COL2A1 (1280), apoptosis genes
  COL2A1 log2FC: 0.036
Gene COL4A3 (1285), apoptosis genes
  COL4A3 log2FC: 0.173
Gene COMP (1311), apoptosis genes
  COMP log2FC: -0.018
Gene COPS5 (Gene 10987), cell cycle genes
  log2FC: 0.503
Gene CRLF3 (Gene 51379), cell cycle genes
  log2FC: 0.438
Gene CSNK2B (Gene 1460), cell cycle genes
  log2FC: -0.263
Gene CST3 (1471), apoptosis genes
  CST3 log2FC: -0.001
Gene CTLA4 (1493), apoptosis genes
  CTLA4 log2FC: -0.015
Gene CXCR4 (7852), apoptosis genes
  CXCR4 log2FC: -0.044
Gene CYR61 (3491), apoptosis genes
  CYR61 log2FC: -0.093
Gene DAPK2 (23604), apoptosis genes
  DAPK2 log2FC: 0.127
Gene DAXX (1616), apoptosis genes
  DAXX log2FC: 0.003
Gene DAXX (Gene 1616), cell cycle genes
  log2FC DAXX: 0.003
Gene DCLRE1B (Gene 64858), cell cycle genes
  log2FC: -0.240
Gene DDX11 (Gene 1663), cell cycle genes
  log2FC: -0.382
Gene DDX47 (51202), apoptosis genes
  DDX47 log2FC: 0.072
Gene DEDD2 (162989), apoptosis genes
  DEDD2 log2FC: 0.036
Gene DFFB (1677), apoptosis genes
  DFFB log2FC: -0.039
Gene DIAPH2 (Gene 1730), cell cycle genes
  log2FC: 0.484
Gene DIRAS3 (Gene 9077), cell cycle genes
  log2FC DIRAS3: 0.0064
Gene DMPK (1760), apoptosis genes
  DMPK log2FC: -0.105
Gene DNM2 (1785), apoptosis genes
  DNM2 log2FC: -0.047
Gene DPF1 (8193), apoptosis genes
  DPF1 log2FC: -0.079
Gene ECD (Gene 11319), cell cycle genes
  log2FC ECD: -0.009
Gene EGR3 (1960), apoptosis genes
  EGR3 log2FC: -0.131
Gene EGR4 (1961), apoptosis genes
  EGR4 log2FC: -0.00345
Gene ELMO1 (9844), apoptosis genes
  ELMO1 log2FC: 0.077
Gene EPB41L3 (23136), apoptosis genes
  EPB41L3 log2FC: -0.033
